Measurements: paper PMC6199744, “Development of Chemical Proteomics for the Folateome and Analysis of the Kinetoplastid Folateome” (ACS Infectious Diseases, 2018)
Where two headings read alike, the source gives them in different places.

How the values were obtained:
Format in all cases: binding
[1] = molecular target: T1, HeLa cell extract proteins (Homo sapiens, UniProt O14744)
T1 construct: endogenous in cells; host or cells: HeLa cell extract

[2] = molecular target: T2, HeLa cell extract proteins (Homo sapiens, UniProt P05141)
T2 construct: endogenous in cells; host or cells: HeLa cell extract
T2 sequence (P05141 1-298): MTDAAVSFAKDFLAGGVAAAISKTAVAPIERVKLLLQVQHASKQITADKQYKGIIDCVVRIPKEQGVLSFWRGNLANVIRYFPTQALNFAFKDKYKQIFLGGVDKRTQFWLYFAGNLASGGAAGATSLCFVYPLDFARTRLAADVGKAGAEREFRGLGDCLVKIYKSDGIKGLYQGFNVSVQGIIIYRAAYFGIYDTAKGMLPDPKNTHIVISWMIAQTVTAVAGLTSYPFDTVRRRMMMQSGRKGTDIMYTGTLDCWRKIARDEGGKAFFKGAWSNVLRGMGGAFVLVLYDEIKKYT

[3] = molecular target: T3, HeLa cell extract proteins (Homo sapiens, UniProt P07195)
T3 construct: endogenous in cells; host or cells: HeLa cell extract

[4] = molecular target: T4, HeLa cell extract proteins (Homo sapiens, UniProt P22314)
T4 construct: endogenous in cells; host or cells: HeLa cell extract
T4 sequence (P22314 1-1058): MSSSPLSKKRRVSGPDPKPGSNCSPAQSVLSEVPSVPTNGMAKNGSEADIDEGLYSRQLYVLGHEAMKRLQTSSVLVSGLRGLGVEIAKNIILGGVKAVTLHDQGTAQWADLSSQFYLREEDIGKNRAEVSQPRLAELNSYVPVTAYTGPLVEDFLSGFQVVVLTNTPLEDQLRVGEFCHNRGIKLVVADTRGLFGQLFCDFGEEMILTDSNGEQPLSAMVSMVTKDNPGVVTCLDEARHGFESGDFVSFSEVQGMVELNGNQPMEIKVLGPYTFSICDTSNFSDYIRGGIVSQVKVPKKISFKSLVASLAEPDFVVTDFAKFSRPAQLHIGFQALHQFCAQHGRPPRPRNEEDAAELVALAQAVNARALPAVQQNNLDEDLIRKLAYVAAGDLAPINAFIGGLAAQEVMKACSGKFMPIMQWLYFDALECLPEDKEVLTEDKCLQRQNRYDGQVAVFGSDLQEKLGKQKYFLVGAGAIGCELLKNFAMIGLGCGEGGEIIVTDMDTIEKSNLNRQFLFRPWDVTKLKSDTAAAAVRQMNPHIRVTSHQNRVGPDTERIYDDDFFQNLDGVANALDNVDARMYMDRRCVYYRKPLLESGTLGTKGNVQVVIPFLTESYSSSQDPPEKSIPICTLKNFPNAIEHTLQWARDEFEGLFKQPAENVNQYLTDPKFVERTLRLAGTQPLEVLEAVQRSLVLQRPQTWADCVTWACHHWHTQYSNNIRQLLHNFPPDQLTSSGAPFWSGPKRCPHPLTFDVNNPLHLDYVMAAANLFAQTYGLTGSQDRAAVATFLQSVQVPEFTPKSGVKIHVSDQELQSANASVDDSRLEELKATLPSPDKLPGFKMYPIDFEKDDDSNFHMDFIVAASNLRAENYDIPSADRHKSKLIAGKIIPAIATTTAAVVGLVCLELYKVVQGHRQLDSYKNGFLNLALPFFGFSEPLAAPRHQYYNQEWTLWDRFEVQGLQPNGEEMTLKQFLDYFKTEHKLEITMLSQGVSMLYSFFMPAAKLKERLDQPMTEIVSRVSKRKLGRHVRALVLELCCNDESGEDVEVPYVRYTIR

[5] = molecular target: T5, HeLa cell extract proteins (Homo sapiens, UniProt P27348)
T5 construct: endogenous in cells; host or cells: HeLa cell extract
T5 sequence (P27348 1-245): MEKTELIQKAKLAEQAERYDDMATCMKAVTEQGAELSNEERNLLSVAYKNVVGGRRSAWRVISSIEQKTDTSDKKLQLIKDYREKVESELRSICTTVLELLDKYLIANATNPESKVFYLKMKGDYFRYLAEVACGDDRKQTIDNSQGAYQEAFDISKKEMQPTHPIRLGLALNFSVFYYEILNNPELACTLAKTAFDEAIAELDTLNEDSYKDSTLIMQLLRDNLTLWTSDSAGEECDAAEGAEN

[6] = molecular target: T6, HeLa cell extract proteins (Homo sapiens, UniProt P31943)
T6 construct: endogenous in cells; host or cells: HeLa cell extract
T6 sequence (P31943 1-449): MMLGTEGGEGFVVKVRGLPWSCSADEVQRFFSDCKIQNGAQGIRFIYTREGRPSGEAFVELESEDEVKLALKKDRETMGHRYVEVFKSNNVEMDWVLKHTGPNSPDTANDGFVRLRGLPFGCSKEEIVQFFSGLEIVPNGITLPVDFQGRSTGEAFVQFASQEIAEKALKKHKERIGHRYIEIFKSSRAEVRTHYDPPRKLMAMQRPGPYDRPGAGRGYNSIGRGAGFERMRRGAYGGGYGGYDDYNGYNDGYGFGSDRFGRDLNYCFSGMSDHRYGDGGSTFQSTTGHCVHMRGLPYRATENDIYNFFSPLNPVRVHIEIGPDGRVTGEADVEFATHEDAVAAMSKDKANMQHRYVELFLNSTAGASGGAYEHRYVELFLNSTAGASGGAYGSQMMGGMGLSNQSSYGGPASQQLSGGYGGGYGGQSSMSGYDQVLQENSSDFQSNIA

[7] = molecular target: T7, HeLa cell extract proteins (Homo sapiens, UniProt P61981)
T7 construct: endogenous in cells; host or cells: HeLa cell extract
T7 sequence (P61981 1-247): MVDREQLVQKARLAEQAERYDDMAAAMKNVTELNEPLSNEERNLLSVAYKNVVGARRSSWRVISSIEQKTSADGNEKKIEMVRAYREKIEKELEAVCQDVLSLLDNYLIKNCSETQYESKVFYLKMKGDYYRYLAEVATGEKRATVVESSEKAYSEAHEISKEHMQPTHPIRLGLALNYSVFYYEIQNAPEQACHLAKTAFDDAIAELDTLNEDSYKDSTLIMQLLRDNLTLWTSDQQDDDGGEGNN

[8] = molecular target: T8, HeLa cell extract proteins (Homo sapiens, UniProt Q96EY8)
T8 construct: endogenous in cells; host or cells: HeLa cell extract
T8 sequence (Q96EY8 33-250): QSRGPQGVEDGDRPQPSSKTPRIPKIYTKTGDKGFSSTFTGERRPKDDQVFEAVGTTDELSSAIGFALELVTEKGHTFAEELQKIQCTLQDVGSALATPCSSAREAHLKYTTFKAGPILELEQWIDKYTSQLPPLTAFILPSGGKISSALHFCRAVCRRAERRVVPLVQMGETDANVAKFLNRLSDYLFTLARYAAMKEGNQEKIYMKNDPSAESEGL

[9] = HeLa, protein LDHB (L-LACTATE DEH[…] CHAIN.)
[10] = HeLa, protein YWHAG (14-3-3 PROTEIN GAMMA.)

T3 sequence (P07195 whole entry): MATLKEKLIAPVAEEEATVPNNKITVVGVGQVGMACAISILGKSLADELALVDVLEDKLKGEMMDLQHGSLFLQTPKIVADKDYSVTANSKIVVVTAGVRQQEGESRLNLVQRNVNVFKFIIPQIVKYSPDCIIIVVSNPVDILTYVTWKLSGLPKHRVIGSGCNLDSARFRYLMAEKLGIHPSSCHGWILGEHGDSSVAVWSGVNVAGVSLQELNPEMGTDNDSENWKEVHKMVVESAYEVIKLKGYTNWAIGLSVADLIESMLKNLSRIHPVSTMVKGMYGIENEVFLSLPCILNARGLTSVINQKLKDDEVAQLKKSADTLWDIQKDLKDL
T1 sequence (O14744 whole entry): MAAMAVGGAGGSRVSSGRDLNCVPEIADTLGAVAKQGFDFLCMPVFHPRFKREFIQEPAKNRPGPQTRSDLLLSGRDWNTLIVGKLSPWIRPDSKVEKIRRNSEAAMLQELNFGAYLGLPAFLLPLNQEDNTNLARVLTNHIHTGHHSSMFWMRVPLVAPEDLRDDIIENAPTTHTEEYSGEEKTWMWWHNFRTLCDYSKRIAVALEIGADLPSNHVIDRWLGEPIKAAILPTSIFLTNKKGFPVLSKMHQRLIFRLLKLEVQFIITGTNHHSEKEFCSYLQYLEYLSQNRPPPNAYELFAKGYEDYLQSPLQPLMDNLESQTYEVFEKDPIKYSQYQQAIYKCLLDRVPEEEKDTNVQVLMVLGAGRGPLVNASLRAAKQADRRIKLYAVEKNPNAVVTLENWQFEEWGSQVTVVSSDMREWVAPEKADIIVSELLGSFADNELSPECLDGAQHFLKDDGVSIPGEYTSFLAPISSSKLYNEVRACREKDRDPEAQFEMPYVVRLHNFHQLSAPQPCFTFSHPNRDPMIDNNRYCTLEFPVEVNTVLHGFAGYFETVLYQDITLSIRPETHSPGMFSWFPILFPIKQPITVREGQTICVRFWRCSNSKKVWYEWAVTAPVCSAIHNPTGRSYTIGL

| Structure (SMILES) | fold changes relative to vehicle control ([1]; protein PRMT5, HeLa) | fold changes relative to vehicle control ([2]; captured protein SLC25A5, HeLa) | fold changes relative to vehicle control ([4]; protein UBA1, HeLa) | fold changes relative to vehicle control ([5]; protein YWHAQ, HeLa) | fold changes relative to vehicle control ([6]; HeLa, protein HNRNPH1) | fold changes relative to vehicle control [7, 10] | fold changes relative to vehicle control ([8]; HeLa, protein MMAB) | fold changes relative to vehicle control ([2]; HeLa, protein SLC25A5) | fold changes relative to vehicle control ([3]; HeLa, captured protein LDHB) | fold changes relative to vehicle control ([4]; HeLa, protein UBA1) | fold changes relative to vehicle control ([5]; HeLa, protein YWHAQ) | fold changes relative to vehicle control ([6]; HeLa, captured protein HNRNPH1) | fold changes relative to vehicle control ([7]; protein YWHAG, HeLa) | fold changes relative to vehicle control ([8]; HeLa, protein MMAB (COB)) | other results |
| --- | --- | --- | --- | --- | --- | --- | --- | --- | --- | --- | --- | --- | --- | --- | --- |
| Nc1nc2cccc(-c3ccccc3)c2n1Cc1ccc(Cl)c(Cl)c1 [compound 3] | 0.85 | 1.02 | 0.75 | 0.88 | 1 | 0.97 fold | 0.96 | – | – | – | – | – | – | – | fold changes relative to vehicle control [3, 9]: 0.94 fold |
| Nc1nc2[nH]cc(CCc3ccc(C(=O)N[C@@H](CCC(=O)O)C(=O)O)cc3)c2c(=O)[nH]1 [PTX, pemetrexed] | – | – | – | – | – | – | – | – | – | – | – | – | – | – | fold changes relative to vehicle control [1]: 0.99; fold changes relative to vehicle control [2]: 0.9; fold changes relative to vehicle control [3]: 1.35; fold changes relative to vehicle control [4]: 0.96; fold changes relative to vehicle control [5]: 1.05; fold changes relative to vehicle control [6]: 0.86; fold changes relative to vehicle control [7]: 1.09; fold changes relative to vehicle control [8]: 0.85 |
| Nc1nc2c(c(=O)[nH]1)N(C=O)C(CNc1ccc(C(=O)N[C@@H](CCC(=O)O)C(=O)O)cc1)CN2 (some centres unmarked) [LEU, leucovorin] | 0.96 | – | – | – | – | – | – | 0.84 | 1.21 | 1.05 | 1.08 | 0.96 | 1.02 | 0.99 | – |
| CCCCCCOc1cccc(Cc2cnc(N)nc2N)c1 [compound 2] | 1.12 | 0.9 | 1.62 | 2.29 | 1.02 | 2.09 fold | 0.94 | – | – | – | – | – | – | – | fold changes relative to vehicle control ([3]; HeLa, protein LDHB (L-LACTATE DEHYDROGENASE B CHAIN.)): 2.97 fold |
| NCCOCCOCC(=O)Nc1nc2ncc(CNc3ccc(C(=O)NC(CCC(=O)O)C(=O)O)cc3)nc2c(=O)[nH]1 (centres unmarked) [compound 6] | 1.21 | – | – | – | – | – | – | 0.97 | 1.42 | 1.15 | 1.15 | 0.84 | 1.26 | 0.51 | – |
| CCCCCCOc1ccc(Cc2cnc(N)nc2N)cc1 [compound 1] | 0.93 | 0.96 | 0.77 | 1.54 | 0.96 | 1.45 fold | 0.95 | – | – | – | – | – | – | – | fold changes relative to vehicle control [3, 9]: 1.75 fold |
| NCCCNc1ccc(C(=O)NC(CCC(=O)O)C(=O)O)cc1 (centres unmarked) [compound 7] | 1.05 | – | – | – | – | – | – | 0.96 | 0.96 | 0.92 | 0.86 | 0.92 | 0.91 | 0.94 | – |
